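Following 48 hours of exposure in 96-well plates, responses at five concentrations were used to interpolate endpoints linearly. At the TGI there is no net growth.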
Experiments:
Assay in all cases: NCI tumour cell line growth inhibition, 48 h
[1] = system: 786-0 renal
[2] = system: A498 renal
[3] = system: ACHN renal
[4] = system: COLO 205 colon
[5] = system: DU-145 prostate
[6] = system: EKVX NSCLC
[7] = system: HOP-62 NSCLC
[8] = system: HT29 colon
[9] = system: MDA-MB-231 breast
[10] = system: MDA-MB-435
[11] = system: NCI-H460 lung
[12] = system: NCI-H522 lung
[13] = system: SF-268 CNS
[14] = system: SF-295 CNS
[15] = system: T-47D breast
[16] = system: TK-10 renal
[17] = system: U251 CNS
[18] = system: UO-31 renal
[19] = system: SK-OV-3 ovarian

| Compound | TGI [1] [µM] | TGI [2] [µM] | TGI [3] [µM] | TGI [4] [µM] | TGI [5] [µM] | TGI [6] [µM] | TGI [7] [µM] | TGI [8] [µM] | TGI [9] [µM] | TGI [10] [µM] | TGI [11] [µM] | TGI [12] [µM] | TGI [13] [µM] | TGI [14] [µM] | TGI [15] [µM] | TGI [16] [µM] | TGI [17] [µM] | TGI [18] [µM] | TGI [19] [µM] |
| --- | --- | --- | --- | --- | --- | --- | --- | --- | --- | --- | --- | --- | --- | --- | --- | --- | --- | --- | --- |
| O=[n+]1c2ccccc2n([O-])c2ccccc21 | > 100 | > 100 | > 100 | > 100 | > 100 | > 100 | > 100 | > 100 | > 100 | > 100 | > 100 | > 100 | > 100 | > 100 | > 100 | > 100 | > 100 | > 100 | – |
| COc1cccc(OC/C(N=Cc2cccnc2)=N/NC(=O)c2ccncc2)c1 | > 100 | > 100 | > 100 | > 100 | > 100 | > 100 | > 100 | > 100 | > 100 | > 100 | > 100 | > 100 | > 100 | > 100 | > 100 | > 100 | > 100 | – | > 100 |
| COc1nc(C)nc2sc3c(c12)CCCC3 | > 100 | > 100 | > 100 | > 100 | > 100 | > 100 | > 100 | > 100 | > 100 | > 100 | > 100 | > 100 | > 100 | > 100 | > 100 | > 100 | > 100 | > 100 | – |
| CO[C@H]1c2cccc3cccc(c23)[C@@H]1n1[nH]c(=O)n(C(C)(C)C)c1=O | > 100 | > 100 | – | > 100 | > 100 | > 100 | – | > 100 | > 100 | > 100 | > 100 | > 100 | > 100 | – | > 100 | > 100 | > 100 | > 100 | > 100 |
| OC(CCN1CCCCC1)(c1ccccc1)c1ccccc1 | > 100 | > 100 | > 100 | > 100 | > 100 | > 100 | > 100 | > 100 | > 100 | > 100 | – | > 100 | > 100 | > 100 | > 100 | > 100 | > 100 | > 100 | > 100 |
| O=C1CC(=O)NC(=NN2C(=O)/C(=C/C(=O)c3ccco3)N=C2c2ccccc2)N1 | > 100 | > 100 | > 100 | > 100 | > 100 | – | > 100 | > 100 | > 100 | > 100 | > 100 | 79.8 | > 100 | > 100 | > 100 | > 100 | > 100 | > 100 | > 100 |
| c1ccc2c(C3CCN(CCN4CCOCC4)C3)c[nH]c2c1 (centres undefined) | > 100 | > 100 | > 100 | – | > 100 | > 100 | > 100 | > 100 | > 100 | > 100 | > 100 | > 100 | > 100 | > 100 | > 100 | > 100 | > 100 | > 100 | > 100 |
| COc1ccc2c(c1)/C(=C\c1c(C)nc3n1CCS3)C(=O)N2 | > 100 | 99.6 | > 100 | 41.9 | > 100 | > 100 | > 100 | > 100 | > 100 | 11.5 | > 100 | – | – | 98.9 | > 100 | > 100 | 60 | > 100 | 63.3 |
| Cc1cc([C@H](C#N)c2nc3ccccc3[nH]2)nc(Cl)n1 | > 100 | > 100 | > 100 | > 100 | > 100 | > 100 | – | > 100 | > 100 | > 100 | 63.5 | – | > 100 | > 100 | 89.5 | > 100 | > 100 | > 100 | > 100 |
| CN(C)c1ccc(/C=N\NC(=O)c2ccccc2Nc2ccccc2C(=O)N/N=C/c2ccc(N(C)C)cc2)cc1 | > 100 | > 100 | > 100 | > 100 | > 100 | > 100 | > 100 | > 100 | 67.8 | > 100 | > 100 | – | > 100 | > 100 | > 100 | > 100 | > 100 | > 100 | > 100 |
| COc1cc(S(=O)(=O)Nc2nc(-c3ccc(N4C(=O)C(CC(=O)O)SC4c4ccccc4O)cc3)cs2)ccc1Cl (centres undefined) | > 100 | > 100 | > 100 | > 100 | > 100 | – | > 100 | > 100 | > 100 | > 100 | > 100 | > 100 | > 100 | > 100 | > 100 | > 100 | > 100 | > 100 | > 100 |
| N#C/C(=C\c1cn(Cc2ccccc2)c2ccccc12)c1nn(-c2ccccc2)c(N)c1C#N | 21.3 | 59.3 | 75.6 | 56.2 | 32.2 | 27.5 | – | 27.3 | 14.2 | 74.6 | 25.9 | 34.7 | 91.7 | 26.4 | 23.3 | 35.8 | 26.5 | 26.5 | 40 |
| CC1=NN(C(=O)CC(=O)Nc2ccc(C)cc2)C(=O)C1N=Nc1ccc(C(=O)O)cc1 (centres undefined) | > 100 | > 100 | > 100 | > 100 | > 100 | > 100 | > 100 | > 100 | > 100 | > 100 | – | > 100 | > 100 | > 100 | > 100 | > 100 | > 100 | > 100 | – |

— PubChem BioAssay (NCI)
